Test results reported in paper PMC5548696 (Bioorganic & medicinal chemistry letters, 2017).

Legend:
Recombinant human ENGase = biological target: T1, Recombinant human ENGase (Homo sapiens, UniProt Q8NFI3); type: biochemical; settings: 100 μM drug concentration; first round, 13 drugs
T1 sequence (Q8NFI3 1-743): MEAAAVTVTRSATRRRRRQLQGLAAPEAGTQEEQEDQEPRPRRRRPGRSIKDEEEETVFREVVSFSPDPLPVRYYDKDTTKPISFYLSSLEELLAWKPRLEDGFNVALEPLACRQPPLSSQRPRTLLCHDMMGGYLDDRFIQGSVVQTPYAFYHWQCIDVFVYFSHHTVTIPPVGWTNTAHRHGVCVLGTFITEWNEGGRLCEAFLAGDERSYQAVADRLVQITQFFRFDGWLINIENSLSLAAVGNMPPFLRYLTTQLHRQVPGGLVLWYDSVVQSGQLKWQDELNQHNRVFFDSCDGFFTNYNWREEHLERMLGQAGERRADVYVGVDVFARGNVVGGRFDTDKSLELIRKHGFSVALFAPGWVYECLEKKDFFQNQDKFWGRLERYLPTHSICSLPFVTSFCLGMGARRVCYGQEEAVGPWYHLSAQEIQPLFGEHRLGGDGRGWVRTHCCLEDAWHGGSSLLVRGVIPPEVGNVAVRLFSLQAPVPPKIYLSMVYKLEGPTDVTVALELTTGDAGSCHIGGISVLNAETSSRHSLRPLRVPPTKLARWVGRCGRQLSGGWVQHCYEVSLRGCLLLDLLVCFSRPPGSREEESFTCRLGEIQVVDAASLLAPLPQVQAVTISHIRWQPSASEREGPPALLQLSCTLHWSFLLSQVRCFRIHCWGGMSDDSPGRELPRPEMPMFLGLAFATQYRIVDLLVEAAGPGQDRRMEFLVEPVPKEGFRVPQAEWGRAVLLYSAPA

H+/K+ ATPase = settings: cited from earlier work
human ENGase = settings: read-out: IC50, human ENGase inhibitors; earlier reports; cited from earlier work

Compound: Cc1c(OCC(F)(F)F)ccnc1C[S+]([O-])c1nc2ccccc2[nH]1 (stereo not drawn) [Lansoprazole]
- inhibition of ENGase enzyme activity, preliminary ENGase inhibitor screening (Recombinant human ENGase): inhibited ENGase enzyme activity

Compound: COCCCOc1ccnc(C[S+]([O-])c2nc3ccccc3[nH]2)c1C (stereo not drawn) [Rabeprazole]
- target affinity (H+/K+ ATPase): ~ 70 nM

Compound: Man9GlcNAc-thiazoline
- IC50 (human ENGase): 420 nM
